Measurements reported in patent US7655669B2, “Pyrimidineamide derivatives and the use thereof” (Novartis AG, priority 2002, dated 2010).

Experiments:
p210 Bcr-Abl = target: T1, p210 Bcr-Abl (Homo sapiens, UniProt P00519); assay: Test for activity against Bcr-Abl (Bcr-Abl phosphorylation ELISA in 32D-bcr/abl cells); type: cell-based; settings: expressed as a range within which individual IC50 measurements fall
T1 construct: expressed in transfected cells; host or cells: murine myeloid progenitor cell line 32Dcl3 (32D-bcr/abl), from J. Griffin; the other entry of the earlier key: BCR (P11274, Breakpoint cluster region protein)
T1 sequence (P00519 28-1130 limits assumed): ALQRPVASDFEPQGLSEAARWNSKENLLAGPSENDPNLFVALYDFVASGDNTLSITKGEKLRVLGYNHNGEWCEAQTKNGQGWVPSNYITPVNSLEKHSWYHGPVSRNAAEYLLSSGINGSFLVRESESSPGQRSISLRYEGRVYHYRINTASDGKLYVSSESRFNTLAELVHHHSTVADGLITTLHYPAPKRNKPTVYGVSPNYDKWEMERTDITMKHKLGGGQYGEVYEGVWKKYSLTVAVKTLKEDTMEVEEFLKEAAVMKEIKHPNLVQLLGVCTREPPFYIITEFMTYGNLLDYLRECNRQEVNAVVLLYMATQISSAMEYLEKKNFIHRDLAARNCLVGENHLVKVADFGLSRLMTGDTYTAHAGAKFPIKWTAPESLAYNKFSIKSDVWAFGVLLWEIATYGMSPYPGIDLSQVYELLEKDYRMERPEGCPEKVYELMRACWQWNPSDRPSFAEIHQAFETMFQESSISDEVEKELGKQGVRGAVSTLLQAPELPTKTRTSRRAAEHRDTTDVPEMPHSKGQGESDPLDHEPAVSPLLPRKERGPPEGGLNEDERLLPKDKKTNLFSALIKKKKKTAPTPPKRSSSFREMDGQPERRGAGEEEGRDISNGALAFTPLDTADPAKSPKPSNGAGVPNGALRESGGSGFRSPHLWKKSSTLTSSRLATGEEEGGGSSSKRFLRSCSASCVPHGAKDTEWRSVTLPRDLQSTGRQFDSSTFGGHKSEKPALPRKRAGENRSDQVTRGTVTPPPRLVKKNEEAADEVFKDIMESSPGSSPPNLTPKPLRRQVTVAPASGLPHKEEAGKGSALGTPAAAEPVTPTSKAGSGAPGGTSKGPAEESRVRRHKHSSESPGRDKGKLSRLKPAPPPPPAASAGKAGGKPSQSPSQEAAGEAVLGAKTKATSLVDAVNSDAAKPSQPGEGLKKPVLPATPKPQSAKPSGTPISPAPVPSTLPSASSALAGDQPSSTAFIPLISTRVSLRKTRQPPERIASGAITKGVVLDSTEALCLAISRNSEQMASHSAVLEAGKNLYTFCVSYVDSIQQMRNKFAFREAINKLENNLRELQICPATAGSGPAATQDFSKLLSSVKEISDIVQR
Source text: Test for activity against Bcr-Abl. The murine myeloid progenitor cell line 32Dcl3 transfected with the p210 Bcr-Abl expression vector pGDp210Bcr/Abl (32D-bcr/abl) was obtained from J. Griffin (Dana Faber Cancer Institute, Boston, Mass., USA). The cells express the fusion Bcr-Abl protein with a constitutively active Abl kinase and proliferate growth factor independent. […] After thawing, the cells are used during maximally 10-12 passages for the experiments.
For cellular assays, compounds are dissolved in DMSO and diluted with complete medium to yield a starting concentration of 10 μM followed by preparation of serial 3-fold dilutions in complete medium. 200,000 32D-Bcr/Abl cells in 50 μL complete medium are seeded per well in 96 well round bottom tissue culture plates. 50 μL per well of serial 3-fold dilutions of the test compound are added to the cells in triplicates. Untreated cells are used as control. The compound is incubated together with the cells for 90 min at 37° C., 5% CO2, followed by centrifugation of the tissue culture plates at 1300 rpm (Beckman GPR centrifuge) and removal of the supernatants by careful aspiration taking care not to remove any of the pelleted cells. The cell pellets are lysed by addition of 150 μL lysis buffer (50 mM Tris/HCl, pH 7.4, 150 mM sodium chloride, 5 mM EDTA, 1 mM EGTA, 1% NP-40, 2 mM sodium ortho-vanadate, 1 mM PMSF, 50 μg/mL aprotinin and 80 μg/mL leupeptin) and either used immediately for the ELISA or stored frozen in the plates at −20° C. until usage.
After washing 3 times with 200 μL/well PBS containing 0.05% Tween20 (PBST) and 0.5% TopBlock (Juro), residual protein binding sites are blocked with 200 μL/well PBST, 3% TopBlock for 4 h at room temperature followed by incubation with 50 μL lysates of untreated or compound-treated cells (20 μg total protein per well) for 3-4 h at 4° C. After 3 washings, 50 μL/well anti-phosphotyrosine Ab PY20(AP) labeled with alkaline phosphatase (Zymed) diluted to 0.2 μg/mL in blocking buffer is added and incubated over night (4° C.). For all incubation steps the plates are covered with plate sealers (Costar). Finally, the plates are washed another three times with washing buffer and once with deionized water before addition of 90 μL/well of the AP-substrate CDPStar RTU with Emerald II. The plates, now sealed with Packard TopSeal™-A plate sealers, are incubated for 45 min at room temperature in the dark and luminescence is quantified by measuring counts per second (CPS) with a Packard Top Count Microplate Scintillation Counter (Top Count).
The difference between the ELISA-readout (CPS) obtained for with the lysates of the untreated 32D-Bcr/Abl cells and the readout for the assay-background (all components, but without cell lysate) is calculated and taken as 100% reflecting the constitutively phosphorylated Bcr-Abl protein present in these cells. The activity of the compound on the Bcr-Abl kinase activity is expressed as percent reduction of the Bcr-Abl phosphorylation. The values for the IC50 and IC90 are determined from the dose response curves by graphical extrapolation.

[1] = target: T2, c-Abl protein tyrosine kinase (Homo sapiens, UniProt P00519); assay: Test for activity against c-Abl protein tyrosine kinase (filter binding assay); type: biochemical; settings: expressed as a range within which individual IC50 measurements fall
T2 construct: The His-tagged kinase domain of c-Abl is cloned and expressed in the baculovirus/Sf9 system; His; made in house; host or cells: baculovirus/Sf9
T2 sequence (P00519 242-493 limits assumed): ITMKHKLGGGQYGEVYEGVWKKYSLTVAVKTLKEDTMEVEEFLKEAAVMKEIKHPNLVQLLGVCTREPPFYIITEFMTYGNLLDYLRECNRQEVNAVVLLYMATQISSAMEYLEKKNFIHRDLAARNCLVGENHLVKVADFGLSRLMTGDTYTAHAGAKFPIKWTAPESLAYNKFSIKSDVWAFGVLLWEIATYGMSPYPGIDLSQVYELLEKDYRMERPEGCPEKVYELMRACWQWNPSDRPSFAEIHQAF
Description: Test for activity against c-Abl protein tyrosine kinase. […] The assay contains: c-Abl kinase (50 ng), 20 mM Tris-HCl, pH 7.5, 10 mM MgCl2, 10 μM Na3VO4, 1 mM DTT and 0.06 μCi/assay [γ^33P]-ATP (5 μM ATP) using 30 μg/mL poly-Ala,Glu,Lys,Tyr-6:2:5:1 (Poly-AEKY, Sigma P1152) in the presence of 1% DMSO, total volume of 30 μL. Reactions are terminated by adding 10 μL of 250 mM EDTA, and 30 μL of the reaction mixture is transferred onto Immobilon-PVDF membrane (Millipore, Bedford, Mass., USA) previously soaked for 5 min with methanol, rinsed with water, then soaked for 5 min with 0.5% H3PO4 and mounted on vacuum manifold with disconnected vacuum source. After spotting all samples, vacuum is connected and each well rinsed with 200 μL 0.5% H3PO4. Membranes are removed and washed on a shaker with 0.5% H3PO4 (4 times) and once with ethanol. Membranes are counted after drying at ambient temperature, mounting in Packard TopCount 96-well frame, and addition of 10 μL/well of Microscint™ (Packard).

Structure (SMILES)	IC50 (p210 Bcr-Abl)	IC50 [1]
Cc1ccc(NC(=O)c2ccc(-n3ccnc3)c(C(F)(F)F)c2)cc1Nc1nccc(-c2cccnc2)n1 [Example 6, 4-(1H-Imidazol-1-yl)-N-[4-methyl-3-[[4-(3-pyridinyl)-2-pyrimidinyl]amino]phenyl]-3-(trifluoromethyl)-benzamide]	10 to 50 nM	5 to 20 nM
Cc1cn(-c2cc(C(=O)Nc3ccc(C)c(Nc4nccc(-c5cccnc5)n4)c3)cc(C(F)(F)F)c2)cn1 [Example 12, 3-(4-Methyl-1H-imidazol-1-yl)-N-[4-methyl-3-[4-(3-pyridinyl)-2-pyrimidinyl]amino]phenyl-5-(trifluoromethyl)-benzamide]	10 to 50 nM	5 to 20 nM
Cc1cn(-c2ccc(C(=O)Nc3ccc(C)c(Nc4nccc(-c5cccnc5)n4)c3)cc2C(F)(F)F)cn1 [Example 8, 4-(4-Methyl-1H-imidazol-1-yl)-N-[4-methyl-3-[[4-(3-pyridinyl)-2-pyrimidinyl]amino]phenyl]-3-(trifluoromethyl)-benzamide]	10 to 50 nM	5 to 20 nM
Cc1ccc(NC(=O)c2ccc(N(C)C3CCN(C)CC3)c(C(F)(F)F)c2)cc1Nc1nccc(-c2cccnc2)n1 [Example 16, 4-[Methyl-(1-methyl-4-piperidinyl)amino]-N-[4-methyl-3-[[4-(3-Pyridinyl)-2-pyrimidinyl]amino]phenyl]-3-(trifluoromethyl)-benzamide]	50 to 200 nM	5 to 20 nM
Cc1ccc(NC(=O)c2ccc(N(C)CCN(C)C)c(C(F)(F)F)c2)cc1Nc1nccc(-c2cccnc2)n1 [Example 15, 4-[[2-(Dimethylamino)ethyl]methylamino]-N-[4-methyl-3-[[4-(3-pyridinyl)-2-Pyrimidinyl]amino]phenyl]-3-(trifluoromethyl)-benzamide]	50 to 200 nM	5 to 20 nM
Cc1ccc(NC(=O)c2ccc(N3CCCC3)c(C(F)(F)F)c2)cc1Nc1nccc(-c2cccnc2)n1 [Example 2, N-[4-Methyl-3-[[4-(3-pyridinyl)-2-pyrimidinyl]amino]phenyl]-4-(1-pyrrolidinyl)-3-(trifluoromethyl)-benzamide]	100 to 300 nM	10 to 60 nM
CC(=O)Nc1cc(C(=O)Nc2ccc(C)c(Nc3nccc(-c4cccnc4)n3)c2)cc(C(F)(F)F)c1 [Example 18, 3-Acetylamino-N-[4-methyl-3-[[4-(3-pyridinyl)-2-pyrimidinyl]amino]phenyl]-5-(trifluoromethyl)-benzamide]	13 nM	
Cc1ccc(NC(=O)c2ccc(-n3ccnc3C)c(C(F)(F)F)c2)cc1Nc1nccc(-c2cccnc2)n1 [Example 7, 4-(2-Methyl-1H-imidazol-1-yl)-N-[4-methyl-3-[[4-(3-pyridinyl)-2-pyrimidinyl]amino]phenyl]-3-(trifluoromethyl)-benzamide]	10 to 50 nM	5 to 20 nM
Cc1ccc(NC(=O)c2cc(N3CCOCC3)cc(C(F)(F)F)c2)cc1Nc1nccc(-c2cccnc2)n1 [Example 13, N-[4-Methyl-3-[[4-(3-pyridinyl)-2-pyrimidinyl]amino]phenyl]-3-(4-morpholinyl)-5-(trifluoromethyl)-benzamide]	20 to 80 nM	5 to 20 nM
CCN(CC)c1ccc(C(=O)Nc2ccc(C)c(Nc3nccc(-c4cccnc4)n3)c2)cc1C(F)(F)F [Example 1, 4-Diethylamino-N-[4-methyl-3-[[4-(3-pyridinyl)-2-pyrimidinyl]amino]phenyl]-3-(trifluoromethyl)-benzamide]	200 to 500 nM	50 to 100 nM
Cc1ccc(NC(=O)c2cc(-n3ccnc3C)cc(C(F)(F)F)c2)cc1Nc1nccc(-c2cccnc2)n1 [Example 11, 3-(2-Methyl-1H-imidazol-1-yl)-N-[4-methyl-3-[[4-(3-pyridinyl)-2-pyrimidinyl]amino]phenyl]-5-(trifluoromethyl)-benzamide]	10 to 50 nM	5 to 20 nM
Cc1ccc(NC(=O)c2ccc(N3CCCCC3)c(C(F)(F)F)c2)cc1Nc1nccc(-c2cccnc2)n1 [Example 4, N-[4-Methyl-3-[[4-(3-pyridinyl)-2-pyrimidinyl]amino]phenyl]-4-(1-piperidinyl)-3-(trifluoromethyl)-benzamide]	80 to 200 nM	60 to 110 nM
Cc1ccc(NC(=O)c2ccc(N3CCN(C)CC3)c(C(F)(F)F)c2)cc1Nc1nccc(-c2cccnc2)n1 [Example 5, 4-(4-Methyl-1-piperazinyl)-N-[4-methyl-3-[[4-(3-pyridinyl)-2-pyrimidinyl]amino]phenyl]-3-(trifluoromethyl)-benzamide]	30 to 100 nM	5 to 50 nM
Cc1ccc(NC(=O)c2cc(-n3ccnc3)cc(C(F)(F)F)c2)cc1Nc1nccc(-c2cccnc2)n1 [Example 10, 3-(1H-Imidazol-1-yl)-N-[4-methyl-3-[[4-(3-pyridinyl)-2-pyrimidinyl]amino]phenyl]-5-(trifluoromethyl)-benzamide]	10 to 50 nM	5 to 20 nM
Cc1cn(-c2ccc(C(=O)Nc3ccc(C)c(Nc4nccc(-c5cccnc5)n4)c3)cc2C(F)(F)F)c(C)n1 [Example 9, 4-(2,4-Dimethyl-1H-imidazol-1-yl)-N-[4-methyl-3-[[4-(3-pyridinyl)-2-pyrimidinyl]amino]phenyl]-3-(trifluoromethyl)-benzamide]	20 to 80 nM	5 to 20 nM
CCNc1cc(C(=O)Nc2ccc(C)c(Nc3nccc(-c4cccnc4)n3)c2)cc(C(F)(F)F)c1 [Example 17]	20 to 60 nM	10 to 70 nM
Cc1ccc(NC(=O)c2cc(N3CCN(C)CC3)cc(C(F)(F)F)c2)cc1Nc1nccc(-c2cccnc2)n1 [Example 14, 3-(4-Methyl-1-piperazinyl)-N-[4-methyl-3-[[4-(3-pyridinyl)-2-pyrimidinyl]amino]phenyl]-5-(trifluoromethyl)-benzamide]	30 to 180 nM	5 to 20 nM
Cc1ccc(NC(=O)c2ccc(N3CCOCC3)c(C(F)(F)F)c2)cc1Nc1nccc(-c2cccnc2)n1 [Example 3, N-[4-Methyl-3-[[4-(3-pyridinyl)-2-pyrimidinyl]amino]phenyl]-4-(4-morpholinyl)-3 (trifluoromethyl)-benzamide]	20 to 100 nM	40 to 100 nM
